Measurements reported in ChEMBL document CHEMBL3885881, “DrugMatrix”.

Organism: Rattus norvegicus
Assay: DrugMatrix - Regimen: Daily Repeat
Format: toxicity, organism-based, Sprague-Dawley
Design: regimen Daily Repeat, gender Male, age 6-8 weeks
Settings: in vivo, po, route oral GAVAGE, vehicle .5 % CMC; for ABSOLUTE BASOPHIL / ABSOLUTE EOSINOPHIL / ABSOLUTE LYMPHOCYTE / ABSOLUTE MONOCYTE / ABSOLUTE SEGMENTED NEUTROPHIL / BASOPHIL / EOSINOPHIL / ERYTHROCYTE COUNT / HEMATOCRIT / HEMOGLOBIN / LEUKOCYTE COUNT / LYMPHOCYTE / MEAN CORPUSCULAR HEMOGLOBIN / MEAN CORPUSCULAR HEMOGLOBIN CONCENTRATION / MEAN CORPUSCULAR VOLUME / MONOCYTE / NEUTROPHIL / NUCLEATED RED BLOOD CELLS / PLATELET COUNT: tissue Blood; for ALANINE AMINOTRANSFERASE / ALBUMIN / ALKALINE PHOSPHATASE / ASPARTATE AMINOTRANSFERASE / BLOOD UREA NITROGEN / CARBON DIOXIDE / CHLORIDE / CHOLESTEROL / CREATINE PHOSPHOKINASE / CREATININE / GLUCOSE / LACTATE DEHYDROGENASE / LIPASE / PHOSPHORUS / POTASSIUM / SODIUM / TOTAL BILIRUBIN / TOTAL PROTEIN / URIC ACID: tissue Plasma
[1] = 19 mg/kg, 120 h, dose level High, time 5 day
[2] = […], 72 h, dose 6.6 mg/Kg, dose level Low, time 3 day
[3] = […], 120 h, dose 6.6 mg/Kg, dose level Low, time 5 day

NCC(CC(=O)O)c1ccc(Cl)cc1 (centres undefined) [BACLOFEN]
ABSOLUTE BASOPHIL [1]: 0 CELLS/uL
ABSOLUTE EOSINOPHIL [1]: 0 CELLS/uL
ABSOLUTE LYMPHOCYTE [1]: 14854 CELLS/uL
ABSOLUTE MONOCYTE [1]: 102.67 CELLS/uL
ABSOLUTE SEGMENTED NEUTROPHIL [1]: 1043.33 CELLS/uL
BASOPHIL [1]: 0%
EOSINOPHIL [1]: 0%
ERYTHROCYTE COUNT [1]: 5.41 x10E6/uL
HEMATOCRIT [1]: 33.6%
HEMOGLOBIN [1]: 13.33 G/DL
LEUKOCYTE COUNT [1]: 16 x10E3/uL
LYMPHOCYTE [1]: 93%
MEAN CORPUSCULAR HEMOGLOBIN [1]: 24.7 pg
MEAN CORPUSCULAR HEMOGLOBIN CONCENTRATION [1]: 39.73 G/DL
MEAN CORPUSCULAR VOLUME [1]: 62.17 fL
MONOCYTE [1]: 0.67%
NEUTROPHIL [1]: 6.33%
NUCLEATED RED BLOOD CELLS [1]: 0 /100WBC
PLATELET COUNT [1]: 1022.33 x10E3/uL
ALANINE AMINOTRANSFERASE [1]: 54.67 u/L
ALBUMIN [1]: 4.1 G/DL
ALKALINE PHOSPHATASE [1]: 431.33 u/L
ASPARTATE AMINOTRANSFERASE [1]: 87.67 u/L
BLOOD UREA NITROGEN [1]: 19.67 mg/dL
CARBON DIOXIDE [1]: 26.33 mmol/L
CHLORIDE [1]: 103.67 MEQ/L
CHOLESTEROL [1]: 59.33 mg/dL
CREATINE PHOSPHOKINASE [1]: 272.67 u/L
CREATININE [1]: 0.23 mg/dL
GLUCOSE [1]: 160 mg/dL
LACTATE DEHYDROGENASE [1]: 391 u/L
LIPASE [1]: 9 u/L
PHOSPHORUS [1]: 11.13 mg/dL
POTASSIUM [1]: 6.54 MEQ/L
SODIUM [1]: 147.27 MEQ/L
TOTAL BILIRUBIN [1]: 0.3 mg/dL
TOTAL PROTEIN [1]: 5.87 G/DL
URIC ACID [1]: 1.4 mg/dL
ABSOLUTE BASOPHIL [2]: 0 CELLS/uL
ABSOLUTE EOSINOPHIL [2]: 196 CELLS/uL
ABSOLUTE LYMPHOCYTE [2]: 14434 CELLS/uL
ABSOLUTE MONOCYTE [2]: 264.67 CELLS/uL
ABSOLUTE SEGMENTED NEUTROPHIL [2]: 1038.67 CELLS/uL
BASOPHIL [2]: 0%
EOSINOPHIL [2]: 1%
ERYTHROCYTE COUNT [2]: 5.8 x10E6/uL
HEMATOCRIT [2]: 36.17%
HEMOGLOBIN [2]: 13.87 G/DL
LEUKOCYTE COUNT [2]: 15.93 x10E3/uL
LYMPHOCYTE [2]: 90.67%
MEAN CORPUSCULAR HEMOGLOBIN [2]: 24.03 pg
MEAN CORPUSCULAR HEMOGLOBIN CONCENTRATION [2]: 38.37 G/DL
MEAN CORPUSCULAR VOLUME [2]: 62.57 fL
MONOCYTE [2]: 1.67%
NEUTROPHIL [2]: 6.67%
NUCLEATED RED BLOOD CELLS [2]: 0 /100WBC
PLATELET COUNT [2]: 1144 x10E3/uL
ALANINE AMINOTRANSFERASE [2]: 51.67 u/L
ALBUMIN [2]: 4.27 G/DL
ALKALINE PHOSPHATASE [2]: 456 u/L
ASPARTATE AMINOTRANSFERASE [2]: 81.33 u/L
BLOOD UREA NITROGEN [2]: 18.33 mg/dL
CARBON DIOXIDE [2]: 27 mmol/L
CHLORIDE [2]: 100 MEQ/L
CHOLESTEROL [2]: 67 mg/dL
CREATINE PHOSPHOKINASE [2]: 351.67 u/L
CREATININE [2]: 0.23 mg/dL
GLUCOSE [2]: 153.33 mg/dL
LACTATE DEHYDROGENASE [2]: 367.67 u/L
LIPASE [2]: 10.67 u/L
PHOSPHORUS [2]: 12.53 mg/dL
POTASSIUM [2]: 7.1 MEQ/L
SODIUM [2]: 142.1 MEQ/L
TOTAL BILIRUBIN [2]: 0.2 mg/dL
TOTAL PROTEIN [2]: 5.93 G/DL
URIC ACID [2]: 1.63 mg/dL
ABSOLUTE BASOPHIL [3]: 0 CELLS/uL
ABSOLUTE EOSINOPHIL [3]: 160.33 CELLS/uL
ABSOLUTE LYMPHOCYTE [3]: 14603.33 CELLS/uL
ABSOLUTE MONOCYTE [3]: 300.67 CELLS/uL
ABSOLUTE SEGMENTED NEUTROPHIL [3]: 1335.67 CELLS/uL
BASOPHIL [3]: 0%
EOSINOPHIL [3]: 1%
ERYTHROCYTE COUNT [3]: 5.47 x10E6/uL
HEMATOCRIT [3]: 35.43%
HEMOGLOBIN [3]: 13.57 G/DL
LEUKOCYTE COUNT [3]: 16.4 x10E3/uL
LYMPHOCYTE [3]: 89%
MEAN CORPUSCULAR HEMOGLOBIN [3]: 24.8 pg
MEAN CORPUSCULAR HEMOGLOBIN CONCENTRATION [3]: 38.3 G/DL
MEAN CORPUSCULAR VOLUME [3]: 64.8 fL
MONOCYTE [3]: 1.67%
NEUTROPHIL [3]: 8.33%
NUCLEATED RED BLOOD CELLS [3]: 0 /100WBC
PLATELET COUNT [3]: 1121.33 x10E3/uL
ALANINE AMINOTRANSFERASE [3]: 51 u/L
ALBUMIN [3]: 4.23 G/DL
ALKALINE PHOSPHATASE [3]: 364.33 u/L
ASPARTATE AMINOTRANSFERASE [3]: 94.33 u/L
BLOOD UREA NITROGEN [3]: 19 mg/dL
CARBON DIOXIDE [3]: 28.33 mmol/L
CHLORIDE [3]: 100.67 MEQ/L
CHOLESTEROL [3]: 71 mg/dL
CREATINE PHOSPHOKINASE [3]: 448 u/L
CREATININE [3]: 0.15 mg/dL
GLUCOSE [3]: 140.33 mg/dL
LACTATE DEHYDROGENASE [3]: 505 u/L
LIPASE [3]: 10 u/L
PHOSPHORUS [3]: 11.6 mg/dL
POTASSIUM [3]: 6.27 MEQ/L
SODIUM [3]: 143.57 MEQ/L
TOTAL BILIRUBIN [3]: 0.23 mg/dL
TOTAL PROTEIN [3]: 6.07 G/DL
URIC ACID [3]: 1.37 mg/dL
